Structures are written as SMILES.

This test concerns the target T1, sGC α1/β1 heterodimer stably expressed in CHO-K1 cells (CHO-K1/sGC) (Homo sapiens, UniProt Q02108+Q02153).
T1 construct: expressed in transfected cells
T1 sequence (Q02108 1-690): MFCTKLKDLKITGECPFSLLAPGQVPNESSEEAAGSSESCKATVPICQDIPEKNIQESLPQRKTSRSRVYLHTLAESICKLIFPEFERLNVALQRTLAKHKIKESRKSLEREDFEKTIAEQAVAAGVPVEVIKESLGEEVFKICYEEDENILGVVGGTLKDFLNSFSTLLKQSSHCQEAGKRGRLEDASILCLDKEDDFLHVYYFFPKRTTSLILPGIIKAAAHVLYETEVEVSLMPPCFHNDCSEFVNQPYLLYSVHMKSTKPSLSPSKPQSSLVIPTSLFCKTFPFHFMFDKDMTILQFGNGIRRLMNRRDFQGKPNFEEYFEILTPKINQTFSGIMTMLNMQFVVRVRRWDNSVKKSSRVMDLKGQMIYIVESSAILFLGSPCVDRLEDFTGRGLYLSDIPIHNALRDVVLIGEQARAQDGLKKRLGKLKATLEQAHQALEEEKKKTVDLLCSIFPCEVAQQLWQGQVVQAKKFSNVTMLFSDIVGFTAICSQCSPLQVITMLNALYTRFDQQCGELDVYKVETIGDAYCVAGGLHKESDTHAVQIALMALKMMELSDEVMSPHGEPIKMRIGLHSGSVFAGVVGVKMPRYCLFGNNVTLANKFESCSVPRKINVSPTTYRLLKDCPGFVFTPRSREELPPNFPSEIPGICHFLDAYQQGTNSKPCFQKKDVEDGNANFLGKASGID
T1 sequence (Q02153 1-619): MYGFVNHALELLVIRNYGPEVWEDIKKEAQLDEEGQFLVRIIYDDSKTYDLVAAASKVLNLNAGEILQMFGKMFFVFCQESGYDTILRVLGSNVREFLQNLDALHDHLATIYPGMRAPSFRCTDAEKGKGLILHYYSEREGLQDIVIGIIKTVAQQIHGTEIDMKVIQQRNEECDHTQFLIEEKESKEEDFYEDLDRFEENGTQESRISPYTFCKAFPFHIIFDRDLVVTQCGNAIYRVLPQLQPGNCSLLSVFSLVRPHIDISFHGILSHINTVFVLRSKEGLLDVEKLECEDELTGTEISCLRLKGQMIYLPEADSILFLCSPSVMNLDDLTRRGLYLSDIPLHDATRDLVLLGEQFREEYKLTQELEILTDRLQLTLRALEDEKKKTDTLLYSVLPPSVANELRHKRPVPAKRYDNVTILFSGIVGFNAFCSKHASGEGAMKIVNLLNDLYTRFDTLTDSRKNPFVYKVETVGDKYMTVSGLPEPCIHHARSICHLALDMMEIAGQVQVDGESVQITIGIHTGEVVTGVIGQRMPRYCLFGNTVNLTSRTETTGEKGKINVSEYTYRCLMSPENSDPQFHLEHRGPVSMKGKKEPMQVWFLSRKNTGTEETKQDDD
The experiment in a line: Cell-based sGC functional assay (CASA assay), cGMP generation by HTRF. The following applies: for EC50: CHO-K1/sGC cells, 1 hr at 37° C., 4P fit, presence or absence of DETA-NO not given, read-out: IP (nM) (inflection point); for % Act. (percent activation relative to Compound A): maximum cGMP production of Compound A set to 100% activation; for Emax: CHO-K1, maximum cGMP production of Compound A set to 100% activation, read-out: % Act. (percent activation relative to Compound A). From the text: Biological Assay 1: Cell-Based sGC Functional Assay (CASA Assay) Rationale
sGC is a heme-containing enzyme that converts GTP to secondary messenger cGMP. Increases in cGMP levels affect several physiological processes including vasorelaxation through multiple downstream pathways. […] Heme-dependent activators (HDAs) preferentially activate sGC containing a ferrous heme group. To determine the effect of sGC activators on enzyme activity, the CASA assay was developed to monitor the generation of cGMP in a cell line that stably expresses the heterodimeric sGC protein.
A CHO-K1 cell line stably expressing the sGC α1/β1 heterodimer was generated using a standard transfection protocol. CHO-K1 cells were transfected with plasmids pIREShyghsGCα1 and pIRESneo-hsGCβ1 simultaneously using FUGENE reagent. Clones that stably express both subunits were selected with hygromycin and neomycin for ˜2 weeks. Clone #7 was chosen for the assay and was designated CHO-K1/sGC. CHO-K1/sGC cells were maintained in F-K12 medium containing 10% heat-inactivated Fetal Bovine Serum (FBS), 100 μg/mL penicillin/streptomycin, 0.5 mg/mL hygromycin and 0.25 mg/mL G418. The cells were then cryopreserved in LN2. On the day of the assay, cells were thawed and resuspended in EBSS Assay Buffer (Sigma, E3024) supplemented with 5 mM MgCl2, 10 mM HEPES (4-(2-hydroxyethyl)piperazine-1-ethanesulfonic acid) and 0.05% BSA (bovine serum albumin) (EAB) and cell density was then adjusted to 4×10^5/mL with EAB. IBMX (3-isobutyl-1-methylxanthin, 0.5 mM) was added to inhibit degradation of cGMP. Compounds were diluted from DMSO stock solutions and added to the assay at a final DMSO concentration of 2.5%. Cells were incubated with compounds in the presence and absence of 1 μM of Diethylenetriamine/nitric oxide adduct (DETA-NO; Sigma, 17018) for 1 hr at 37° C. At the end of the incubation period, the reaction was terminated and the cells were lysed with the detection reagents from Cisbio Kits. The level of intracellular cGMP was determined using an HTRF-based assay kit (CisBio, 62GM2PEC), which detects the displacement of a fluorescence labeled cGMP from its specific antibody. The cGMP produced by test compounds was directly compared to the maximum cGMP production (this value was set to equal 100% activation.) of the published sGC-HDA Compound A:
[drawing 101] (Example 1 in WO 2010/065275, published Jun. 10, 2010). The test compounds' activities were then expressed as a percentage of Compound A, the standard in every experiment. This percent activation was calculated either in the presence or absence of DETA-NO which was then plotted. IP and maximum fold induction was derived using ADA analysis software for 4P fit.
The compounds in the Examples of the instant invention had inflection points (IP) less than or equal to 10 μM and many had IPs less than or equal to about 1 μM.

As for `CC1(c2ccc(Cl)cc2)C(=O)Nc2nc(-c3cn4ccnc4c(OCC4CCCOC4)n3)nc(N)c21` (single isomer, unassigned; fast eluting) [Example 66A, 4-amino-5-(4-chlorophenyl)-5-methyl-2-[8-(tetrahydro-2H-pyran-3-ylmethoxy)imidazo[1,2-a]pyrazin-6-yl]-5,7-dihydro-6H-pyrrolo [2,3-d] pyrimidin-6-one (fast eluting)], the EC50 is 1710 nM and the “% Act. (percent activation relative to Compound A)” value amounted to 115%.
Take `CC1(c2ccc(F)cc2)C(=O)Nc2nc(-c3cn4ccnc4c(Oc4ccc(F)c(F)c4)n3)nc(N)c21` (stereo not shown) [Example 18A, 4-amino-2-[8-(3,4-difluorophenoxy)imidazo[1,2-a]pyrazin-6-yl]-5-(4-fluorophenyl)-5-methyl-5,7-dihydro-6H-pyrrolo[2,3-d] pyrimidin-6-one]: the Emax was found to be 98% and the EC50 was 10 nM.
In the same order, the values of `CC1(c2ccc(F)cc2)C(=O)Nc2nc(-c3cn4ccnc4c(NCC4CC(F)(F)C4)n3)nc(N)c21` (stereo not shown) [Example 53A, 4-amino-2-(8-{[(3,3-difluoro-cyclobutyl)methyl]amino}imidazo[1,2-a]pyrazin-6-yl)-5-(4-fluoro-phenyl)-5-methyl-5,7-dihydro-6H-pyrrolo[2,3-d] pyrimidin-6-one] are 110% and 948 nM.
For `CC1(c2ccc(F)cc2)C(=O)Nc2nc(-c3cn4ccnc4c(OCCC4CC4(F)F)n3)nc(N)c21` (stereo not shown) [Example 41A, 4-amino-2-{8-[2-(2,2-difluoro-cyclopropyl)ethoxy]imidazo[1,2-a]pyrazin-6-yl}-5-(4-fluorophenyl)-5-methyl-5,7-dihydro-6H-pyrrolo[2,3-d] pyrimidin-6-one] the same measures were 94% and 644 nM.
In the same order, the values of `CC1(c2ccc(F)cc2)C(=O)Nc2nc(-c3cn4ccnc4c(OCC4CCCC4)n3)nc(N)c21` (stereo not shown) [Example 45A, 4-amino-2-[8-(cyclopentyl-methoxy)imidazo [1,2-a]pyrazin-6-yl]-5-(4-fluoro-phenyl)-5-methyl-5,7-dihydro-6H-pyrrolo[2,3-d] pyrimidin-6-one] are 110% and 13 nM.
For the molecule `CC1(c2ccc(F)cc2)C(=O)Nc2nc(-c3cn4ccnc4c(OCC4CCCCC4)n3)nc(N)c21` (stereo not shown) [Example 43A, 4-amino-2-[8-(cyclohexyl-methoxy)imidazo [1,2-a]pyrazin-6-yl]-5-(4-fluorophenyl)-5-methyl-5,7-dihydro-6H-pyrrolo[2,3-d] pyrimidin-6-one], the Emax stood at 116% and the EC50 was 17 nM.
For `CC1(c2ccc(Cl)cc2)C(=O)Nc2nc(-c3cn4ccnc4c(NCC4CCOCC4)n3)nc(N)c21` (stereo not shown) [Example 59A, 4-amino-5-(4-chlorophenyl)-5-methyl-2-{8-[(tetrahydro-2H-pyran-4-ylmethyl)amino]imidazo [1,2-a]pyrazin-6-yl}-5,7-dihydro-6H-pyrrolo[2,3-d] pyrimidin-6-one] the same measures were 167% and 701 nM.
On to `CC1(c2ccc(F)cc2)C(=O)Nc2nc(-c3cn4ccnc4c(Oc4ccccc4)n3)nc(N)c21` (stereo not shown) [Example 9A, 4-amino-5-(4-fluorophenyl)-5-methyl-2-(8-phenoxyimidazo [1,2-a]pyrazin-6-yl)-5,7-dihydro-6H-pyrrolo[2,3-d] pyrimidin-6-one], for which the Emax was determined as 124% and the EC50 was 28 nM.
For `CC1(c2ccc(Cl)cc2)C(=O)Nc2nc(-c3cn4ccnc4c(NCc4ccccc4)n3)nc(N)c21` (stereo not shown) [Example 60A, 4-amino-2-[8-(benzylamino)imidazo[1,2-a]pyrazin-6-yl]-5-(4-chloro-phenyl)-5-methyl-5,7-dihydro-6H-pyrrolo[2,3-d] pyrimidin-6-one] the same measures were 72% and 7 nM.
With `CC1(c2ccc(Cl)cc2)C(=O)Nc2nc(-c3cn4ccnc4c(OCC4CCCCO4)n3)nc(N)c21` (single isomer, unassigned; slow eluting) [Example 68B, 4-amino-5-(4-chlorophenyl)-5-methyl-2-[8-(tetrahydro-2H-pyran-2-ylmethoxy)imidazo[1,2-a]pyrazin-6-yl]-5,7-dihydro-6H-pyrrolo [2,3-d] pyrimidin-6-one (slow eluting)], the EC50 is 633 nM and the “% Act. (percent activation relative to Compound A)” value came to 85%.
With `CC1(c2ccc(F)cc2)C(=O)Nc2nc(-c3cn4ccnc4c(Oc4cc(F)cc(F)c4F)n3)nc(N)c21` (stereo not shown) [Example 17A, 4-amino-5-(4-fluorophenyl)-5-methyl-2-[8-(2,3,5-trifluorophenoxy)imidazo[1,2-a]pyrazin-6-yl]-5,7-dihydro-6H-pyrrolo [2,3-d]pyrimidin-6-one], the Emax stood at 100% and the EC50 was determined as 17 nM.
For `CC1(c2ccc(F)cc2)C(=O)Nc2nc(-c3cn4ccnc4c(OCCC4CC4)n3)nc(N)c21` (stereo not shown) [Example 44A, 4-amino-2-[8-(2-cyclopropyl-ethoxy)imidazo [1,2-a]pyrazin-6-yl]-5-(4-fluorophenyl)-5-methyl-5,7-dihydro-6H-pyrrolo[2,3-d] pyrimidin-6-one] the same measures were 100% and 60 nM.
`CC(CNc1nc(-c2nc(N)c3c(n2)NC(=O)C3(C)c2ccc(F)cc2)cn2ccnc12)C(F)(F)F` (racemic) [Example 70, 4-amino-5-(4-fluorophenyl)-5-methyl-2-{8-[(3,3,3-trifluoro-2-methylpropyl)amino]imidazo [1,2-a]pyrazin-6-yl}-5,7-dihydro-6H-pyrrolo[2,3-d] pyrimidin-6-one]: the Emax came to 89% and the EC50 was 291 nM.
For `CC1(c2ccc(Cl)cc2)C(=O)Nc2nc(-c3cn4ccnc4c(NCC4CC4(C)C)n3)nc(N)c21` (stereo not shown) [Example 56A, 4-amino-5-(4-chlorophenyl)-2-(8-{[(2,2-dimethylcyclo-propyl)methyl]amino}imidazo [1,2-a]pyrazin-6-yl)-5-methyl-5,7-dihydro-6H-pyrrolo [2,3-d]pyrimidin-6-one] the same measures were 110% and 51 nM.
